Earlier results as cited in patent US12582389B2, “Urine preservative composition, device for sampling urine and method for manufacturing a urine sampling device” (VACUTEST KIMA S.R.L., priority 2020, dated 2026).

Experiments:
[1] = urine samples with boric acid
Klebsiella sp. = settings: boric acid 1.5-2% W/V with respect to the sample volume

pH of urine samples [1]: ~5
Structure (SMILES): OB(O)O [boric acid]
effect on the most sensitive Gram-negative bacterial strains (Klebsiella sp.): death
